Here are results for five compounds from patent US9585975B2, “MRI contrast agents” (NORTHWESTERN UNIVERSITY, priority 2012, dated 2017).

The nature of data set [1]: Relaxivity determination of free (unbound) contrast agents. The following applies: 37° C. It counts as physicochemical.
Protocol: The relaxation rates and Gd(III) concentrations were determined for contrast agent solutions in a range of concentrations. The relaxation rates of small molecule contrast agents were investigated using a 4 mM starting solution in water and diluted 1:1 four times. […] Relaxation rates were determined using a 60 MHz (1.5 T) NMR analyzer (Bruker Minispec MQ60) at 37° C. using 500 μL in a 7.5 mm inner diameter NMR tubes. T1 relaxation times were determined using monoexponential curve fitting and an inversion recovery pulse sequence with four averages for each of 10 data points.
In another data set the test system is HaloTag protein. To be noted: 37° C. Here is the method: The HaloTag protein was expressed recombinantly after subcloning the target protein into the vector pMCSG7 to include an N-terminal His6-Tag followed by a TEV protease cleavage site. The protein was expressed in BL21(DE3) cells and purified by Nickel affinity chromatography. […] The HaloTag protein was labeled with a 5-fold molar excess of the Gd(III) complex at 4 degrees C. overnight. […] The labeled proteins were concentrated to a starting concentration of ˜600 μM for all relaxivity analyses.
Longitudinal relaxivities of the unbound agents were determined in water and the protein-bound contrast agents in 10 mM MOPS at 1.5 T, 37_C (Table 1).
To prepare the protein-bound contrast agent 12.5 mg protein was incubated overnight at 4° C. with five equivalents haloalkane label. Excess label was removed by size-exclusion chromatography (Econo-Pac 10 DG Disposable Chromatography Columns) and dialysis overnight into 10 mM MOPS, pH 7.4 (Spectrum Spectra/Por 4 Dialysis Membrane Tubing 12-14K MWCO) at 4° C. The protein-bound contrast agent was concentrated to a starting concentration of ˜600 μM for all relaxivity assays (Amicon Ultra-4, PLGC Ultracel-PL Membrane, 10 kDa). Agent binding was detected by mass spectrometry (Agilent 6510 Accurate-Mass Q-TOF LC/MS) and data deconvolution was performed with the included software (Agilent MassHunter Qualitative Analysis).
The relaxation rates and Gd(III) concentrations were determined for contrast agent solutions in a range of concentrations. The relaxation rates of small molecule contrast agents were investigated using a 4 mM starting solution in water and diluted 1:1 four times. Relaxation rates of protein bound contrast agents were measured using 600 μM starting solution in 10 mM MOPS and was diluted 1:1 four times. Relaxation rates were determined using a 60 MHz (1.5 T) NMR analyzer (Bruker Minispec MQ60) at 37° C. using 500 μL in a 7.5 mm inner diameter NMR tubes. T1 relaxation times were determined using monoexponential curve fitting and an inversion recovery pulse sequence with four averages for each of 10 data points.
Gd(III) concentrations for all samples were measured by ICP-MS. Samples were prepared by dissolving 10 μL into 90 μL trace nitric acid, and diluted to 10 mL with ultrapure water (nitric acid was added to generate a 3% solution. Samples contained a multi-element internal standard consisting of 5 ppb each Bi, Ho, In, Li(6), Sc, Tb, and Y (Spex Certiprep, Metuchen, N.J., USA). ICP-MS was performed on a computer-controlled (Plasmalab software) Thermo X series II ICP-MS (Thermo Fisher Scientific, Waltham, Mass., USA) equipped with an ESI SC-2 autosampler (Omaha, Nebr., USA). Each sample was acquired using 1 survey run (10 sweeps) and 3 main (peak jumping) runs (100 sweeps).

For data set [2] the following is noted: 1.5 T, 37 degrees C.; cited from earlier work.
The next data set deals with HSA (Homo sapiens, UniProt P02768). To be noted: 1.5 T, 37 degrees C.; cited from earlier work.

Values joined by “and” are separate entries in the source; they are usually repeats but may differ in a detail not shown here. Identical values can stand only once. Like-named read-outs stand apart in the source and are kept apart here.

HSA, sequence (P02768 25-609): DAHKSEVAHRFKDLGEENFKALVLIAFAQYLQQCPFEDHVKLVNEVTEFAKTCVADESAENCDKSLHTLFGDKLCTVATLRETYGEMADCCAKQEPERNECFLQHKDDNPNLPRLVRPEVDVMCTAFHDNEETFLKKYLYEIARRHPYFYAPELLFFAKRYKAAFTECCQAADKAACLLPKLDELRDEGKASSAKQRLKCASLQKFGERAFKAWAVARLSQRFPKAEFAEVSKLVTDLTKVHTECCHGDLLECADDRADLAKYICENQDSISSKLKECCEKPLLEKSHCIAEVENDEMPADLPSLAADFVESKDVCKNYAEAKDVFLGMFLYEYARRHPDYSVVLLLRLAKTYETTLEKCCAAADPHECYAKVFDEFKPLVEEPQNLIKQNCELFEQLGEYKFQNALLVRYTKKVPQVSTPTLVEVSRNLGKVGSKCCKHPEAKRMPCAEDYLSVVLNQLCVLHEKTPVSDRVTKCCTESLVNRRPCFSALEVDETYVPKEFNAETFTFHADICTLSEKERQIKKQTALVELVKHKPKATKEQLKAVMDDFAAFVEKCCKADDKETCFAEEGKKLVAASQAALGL

In the case of `O=C([O-])CN1CCN(CC(=O)[O-])CCN(CC(=O)NCCOCCOCCCCCCCl)CCN(CC(=O)[O-])CC1.[Gd+3]` [1CHTGd], the “r2 - F (transverse relaxivity, free)” value was 4.1 ± 0.2 mM⁻¹ s⁻¹ in data set [1] (60 MHz) and 4.0 ± 0.1 mM⁻¹ s⁻¹ in data set [1] (400 MHz). Besides, in data set [1] (400 MHz), the “r1 - F (longitudinal relaxivity, free)” value stood at 3.2 ± 0.1 mM⁻¹ s⁻¹. Further, the “r1 - PB (longitudinal relaxivity, protein-bound)” value with HaloTag protein (60 MHz (1.5 T), 10 mM MOPS) is 13.4 ± 1.3 mM⁻¹ s⁻¹; in the data set with HaloTag protein (400 MHz) it was 4.0 ± 0.2 mM⁻¹ s⁻¹. Further, the “r2 - PB (transverse relaxivity, protein-bound)” value in the data set on HaloTag protein (60 MHz) was found to be 25.2 ± 2.6 mM⁻¹ s⁻¹; with HaloTag protein (400 MHz) it was 28 ± 2 mM⁻¹ s⁻¹.
With `O=C([O-])CN1CCN(CCC(=O)NCCOCCOCCCCCCCl)CCN(CC(=O)[O-])CCN(CC(=O)[O-])CC1.[Gd+3]` [2CHTGd], the “r2 - F (transverse relaxivity, free)” value in data set [1] (60 MHz) turned out to be 3.9 ± 0.5 mM⁻¹ s⁻¹; in data set [1] (400 MHz), 4.1 ± 0.1 mM⁻¹ s⁻¹. Also, in data set [1] (400 MHz), the “r1 - F (longitudinal relaxivity, free)” value was 3.3 ± 0.1 mM⁻¹ s⁻¹. Besides, the “r1 - PB (longitudinal relaxivity, protein-bound)” value with HaloTag protein (60 MHz (1.5 T), 10 mM MOPS) is 22.0 mM⁻¹ s⁻¹ and 22.0 ± 2.2 mM⁻¹ s⁻¹; in the data set with HaloTag protein (400 MHz), 5.1 ± 0.7 mM⁻¹ s⁻¹. Further, the “r2 - PB (transverse relaxivity, protein-bound)” value in the data set on HaloTag protein (60 MHz) amounted to 45.3 ± 5.5 mM⁻¹ s⁻¹; with HaloTag protein (400 MHz), 56 ± 8 mM⁻¹ s⁻¹.
Consider `O=C([O-])CN1CCN(CCCC(=O)NCCOCCOCCCCCCCl)CCN(CC(=O)[O-])CCN(CC(=O)[O-])CC1.[Gd+3]` [3CHTGd], for which the “r2 - F (transverse relaxivity, free)” value in data set [1] (60 MHz) turned out to be 5.8 ± 0.1 mM⁻¹ s⁻¹; in data set [1] (400 MHz), 4.9 ± 0.2 mM⁻¹ s⁻¹. The “r1 - F (longitudinal relaxivity, free)” value in data set [1] (400 MHz) turned out to be 6.0 ± 0.2 mM⁻¹ s⁻¹. Moreover, the “r1 - PB (longitudinal relaxivity, protein-bound)” value stood at 7.6 ± 0.7 mM⁻¹ s⁻¹ in the data set on HaloTag protein (60 MHz (1.5 T), 10 mM MOPS) and 2.7 ± 0.1 mM⁻¹ s⁻¹ in the data set with HaloTag protein (400 MHz). In addition, the “r2 - PB (transverse relaxivity, protein-bound)” value in the data set on HaloTag protein (60 MHz) turned out to be 13.1 ± 0.9 mM⁻¹ s⁻¹; in the data set on HaloTag protein (400 MHz) it was 15.9 ± 0.1 mM⁻¹ s⁻¹.
For `O=C([O-])CN1CCN(CCCCC(=O)NCCOCCOCCCCCCCl)CCN(CC(=O)[O-])CCN(CC(=O)[O-])CC1.[Gd+3]` [4CHTGd], the “r2 - F (transverse relaxivity, free)” value in data set [1] (60 MHz) was found to be 6.5 ± 0.5 mM⁻¹ s⁻¹; in data set [1] (400 MHz) it was 6.9 ± 0.2 mM⁻¹ s⁻¹. In data set [1] (400 MHz), the “r1 - F (longitudinal relaxivity, free)” value was found to be 5.6 ± 0.2 mM⁻¹ s⁻¹. Also, the “r1 - PB (longitudinal relaxivity, protein-bound)” value in the data set with HaloTag protein (60 MHz (1.5 T), 10 mM MOPS) is 8.6 ± 1.1 mM⁻¹ s⁻¹; in the data set on HaloTag protein (400 MHz) it was 3.3 ± 0.2 mM⁻¹ s⁻¹. Moreover, the figures for the “r2 - PB (transverse relaxivity, protein-bound)” value in the data set on HaloTag protein (60 MHz) and in the data set on HaloTag protein (400 MHz) were 15.9 ± 2.3 mM⁻¹ s⁻¹ and 19.6 ± 1.3 mM⁻¹ s⁻¹, respectively.
Take `O=C([O-])CN(CCN(CC(=O)[O-])C[C@H](COP(=O)([O-])OC1CCC(c2ccccc2)(c2ccccc2)CC1)N(CC(=O)[O-])CC(=O)[O-])CC(=O)[O-].[Gd+3].[H+].[H+].[H+]` [MS-325]: in data set [2], the “relaxivity, unbound” value was 5.5 mM⁻¹ s⁻¹. The “relaxivity when bound to HSA” value at HSA is 25 mM⁻¹ s⁻¹.
